From PMC11822212, “High-throughput screening identifies Aurora kinase B as a critical therapeutic target for Merkel cell carcinoma” (Nature Communications, 2025)
Counter-ions that a name gives are not always drawn.

Key:
[1] = test system: VP-MCC cell lines (WAGA, MKL-1, MKL-2); assay: qHTS cell viability, VP-MCC cell lines as a group (mean AUC, VP.MCC.avg); assay type: cell-based, human; conditions: for VP-MCC_Avg_AUC: mean AUC of VP-MCC cell lines
MKL-2 cells (VP-MCC) = assay: qHTS cell viability (CellTiter-Glo, 72 h; primary and follow-up small molecule screen); assay type: cell-based, human
HEK293T cells = assay: qHTS cell viability (CellTiter-Glo, 72 h; primary screen), control cell line; assay type: cell-based, human
UISO cells (VN-MCC) = assay: qHTS cell viability (CellTiter-Glo, 72 h; primary and follow-up small molecule screen); assay type: cell-based, human
MCC26 cells (VN-MCC) = assay: as above; assay type: cell-based, human
HACAT cells = assay: qHTS cell viability (CellTiter-Glo, 72 h; primary screen), control cell line; assay type: cell-based, human
[2] = test system: VN-MCC cell lines (MCC13, MCC26, UISO); assay: qHTS cell viability, VN-MCC cell lines as a group (mean AUC, VN.MCC.avg); assay type: cell-based, human; conditions: for VN-MCC_Avg_AUC: mean AUC of VN-MCC cell lines
MKL-1 cells (VP-MCC) = assay: qHTS cell viability (CellTiter-Glo, 72 h; primary and follow-up small molecule screen); assay type: cell-based, human
CRL-7250 cells = assay: qHTS cell viability (CellTiter-Glo, 72 h; primary screen), control cell line; assay type: cell-based
MCC13 cells (VN-MCC) = assay: qHTS cell viability (CellTiter-Glo, 72 h; primary and follow-up small molecule screen); assay type: cell-based, human
[3] = test system: control cell lines (HACAT, HEK293T, CRL-7250, NIH-3T3); assay: qHTS cell viability, control cell lines as a group (mean AUC, Control.avg); assay type: cell-based; conditions: mean AUC of control cell lines
NIH-3T3 cells = assay: qHTS cell viability (CellTiter-Glo, 72 h; primary screen), control cell line; assay type: cell-based, mouse
[4] = test system: six MCC cell lines and four control cell lines; assay: qHTS cell viability, all 10 cell lines screened; assay type: cell-based
WAGA cells (VP-MCC) = assay: qHTS cell viability (CellTiter-Glo, 72 h; primary and follow-up small molecule screen); assay type: cell-based, human
[5] = test system: MCC cell lines (WAGA, MKL-1, MKL-2, MCC13, MCC26, UISO); assay: qHTS cell viability, all six MCC cell lines as a group (mean AUC, MCC.avg); assay type: cell-based, human; conditions: mean AUC of six MCC cell lines
[6] = NPC library, therapeutic window: Control avg AUC minus VP-MCC avg AUC
[7] = NPC library, qHTS dose-response AUC, MKL2
[8] = NPC library, qHTS dose-response AUC, HEK293T control
[9] = NPC library, qHTS dose-response AUC, UISO
[10] = NPC library, qHTS dose-response AUC, MCC26
[11] = NPC library, qHTS dose-response AUC, HACAT control
[12] = NPC library, therapeutic window: Control avg AUC minus VN-MCC avg AUC
[13] = NPC library, qHTS dose-response AUC, MKL1
[14] = NPC library, qHTS dose-response AUC, CRL7250 control
[15] = NPC library, qHTS dose-response AUC, MCC13
[16] = NPC library, qHTS dose-response AUC, NIH3T3 control
[17] = NPC library, therapeutic window: Control avg AUC minus MCC avg AUC
[18] = NPC library, qHTS dose-response AUC, WAGA
[19] = MIPE library, 11-point DRC, sheet S2E
[20] = MIPE library, 11-point DRC, control cell line, sheet S2E

O=C(CCCCCCCCC#CI)Oc1ccccc1 [Phenyl 11-iodo-10-undecynoate] showed a VP-MCC_Avg_AUC ([1]; NPC library) of 405.485, a Control-VP-MCC [1, 6] of 81.5325 and an MKL2_AUC (MKL-2 cells (VP-MCC); [7]) of 402.29. For the same compound, the HEK293T_AUC (HEK293T cells; [8]) was 475.205, the UISO_AUC (UISO cells (VN-MCC); [9]) was 437.546 and the MCC26_AUC (MCC26 cells (VN-MCC); [10]) was 443.917. For the same compound, the HACAT_AUC (HACAT cells; [11]) was 489.285, the VN-MCC_Avg_AUC ([2]; NPC library) was 450.746 and the Control-VN-MCC [2, 12] was 36.2708. The MKL1_AUC (MKL-1 cells (VP-MCC); [13]) was 407.973, the CRL7250_AUC (CRL-7250 cells; [14]) was 487.776 and the MCC13_AUC (MCC13 cells (VN-MCC); [15]) was 470.776. For the same compound, the Control_Avg_AUC ([3]; NPC library) was 487.017, the NIH3T3_AUC (NIH-3T3 cells; [16]) was 495.803 and the Control-MCC [4, 17] was 58.9016. For the same compound, the WAGA_AUC (WAGA cells (VP-MCC); [18]) was 406.191 and the MCC_Avg_AUC ([5]; NPC library) was 428.115.
O=C(CCc1ccc(O)cc1)c1c(O)cc(O)cc1O [Phloretin] gave a Control-VP-MCC ([1]; MIPE library, Control AUC minus VP-MCC AUC (therapeutic window), sheet S2E) of 54.4642, a VP-MCC_Avg_AUC ([1]; MIPE library, sheet S2E) of 415.4 and an MKL2_AUC (MKL-2 cells (VP-MCC); [19]) of 410.273. The MKL2_AUC (MKL-2 cells (VP-MCC); area under the dose-response curve, MKL-2 cells, AUC<450 = reduced viability) was 410.273, the “Area under the dose-response curve (AUC) MKL-2 Replicate 1” value (MKL-2 cells (VP-MCC); follow-up screen, MKL-2, replicate 1) was 493.4 and the “Area under the dose-response curve (AUC) MKL-2 Replicate 2” value (MKL-2 cells (VP-MCC); follow-up screen, MKL-2, replicate 2) was 509.3. The “Area under the dose-response curve (AUC) MKL-2 Replicate 3” value (MKL-2 cells (VP-MCC); follow-up screen, MKL-2, replicate 3) was 493.0, the HEK293T_AUC (HEK293T cells; [20]) was 470.007 and the HEK293T_AUC (HEK293T cells; area under the dose-response curve, HEK293T control cells, AUC<450 = reduced viability) was 470.007. For the same compound, the UISO_AUC (UISO cells (VN-MCC); [19]) was 485.008, the UISO_AUC (UISO cells (VN-MCC); area under the dose-response curve, UISO cells, AUC<450 = reduced viability) was 485.008 and the “Area under the dose-response curve (AUC) UISO Replicate 1” value (UISO cells (VN-MCC); follow-up screen, UISO, replicate 1) was 542.5. The “Area under the dose-response curve (AUC) UISO Replicate 2” value (UISO cells (VN-MCC); follow-up screen, UISO, replicate 2) was 515.8, the “Area under the dose-response curve (AUC) UISO Replicate 3” value (UISO cells (VN-MCC); follow-up screen, UISO, replicate 3) was 481.4 and the MCC26_AUC (MCC26 cells (VN-MCC); [19]) was 472.357. For the same compound, the MCC26_AUC (MCC26 cells (VN-MCC); area under the dose-response curve, MCC26 cells, AUC<450 = reduced viability) was 472.357, the “Area under the dose-response curve (AUC) MCC26 Replicate 1” value (MCC26 cells (VN-MCC); follow-up screen, MCC26, replicate 1) was 472.4 and the “Area under the dose-response curve (AUC) MCC26 Replicate 2” value (MCC26 cells (VN-MCC); follow-up screen, MCC26, replicate 2) was 446.6. The “Area under the dose-response curve (AUC) MCC26 Replicate 3” value (MCC26 cells (VN-MCC); follow-up screen, MCC26, replicate 3) was 497.7, the HACAT_AUC (HACAT cells; [20]) was 476.785 and the HACAT_AUC (HACAT cells; area under the dose-response curve, HACAT control cells, AUC<450 = reduced viability) was 476.785. It also gave a Control-VN-MCC ([2]; MIPE library, Control AUC minus VN-MCC AUC (therapeutic window), sheet S2E) of -6.696, a VN-MCC_Avg_AUC ([2]; MIPE library, sheet S2E) of 476.56 and an MKL1_AUC (MKL-1 cells (VP-MCC); [19]) of 433.632. The MKL1_AUC (MKL-1 cells (VP-MCC); area under the dose-response curve, MKL-1 cells, AUC<450 = reduced viability) was 433.632, the “Area under the dose-response curve (AUC) MKL-1 Replicate 1” value (MKL-1 cells (VP-MCC); follow-up screen, MKL-1, replicate 1) was 526.8 and the “Area under the dose-response curve (AUC) MKL-1 Replicate 2” value (MKL-1 cells (VP-MCC); follow-up screen, MKL-1, replicate 2) was 492.2. For the same compound, the “Area under the dose-response curve (AUC) MKL-1 Replicate 3” value (MKL-1 cells (VP-MCC); follow-up screen, MKL-1, replicate 3) was 497.0, the CRL7250_AUC (CRL-7250 cells; [20]) was 456.981 and the CRL7250_AUC (CRL-7250 cells; area under the dose-response curve, CRL7250 control cells, AUC<450 = reduced viability) was 456.981. For the same compound, the MCC13_AUC (MCC13 cells (VN-MCC); [19]) was 472.315, the MCC13_AUC (MCC13 cells (VN-MCC); area under the dose-response curve, MCC13 cells, AUC<450 = reduced viability) was 472.315 and the “Area under the dose-response curve (AUC) MCC13 Replicate 1” value (MCC13 cells (VN-MCC); follow-up screen, MCC13, replicate 1) was 534.6. The “Area under the dose-response curve (AUC) MCC13 Replicate 2” value (MCC13 cells (VN-MCC); follow-up screen, MCC13, replicate 2) was 495.7, the “Area under the dose-response curve (AUC) MCC13 Replicate 3” value (MCC13 cells (VN-MCC); follow-up screen, MCC13, replicate 3) was 492.0 and the Control_Avg_AUC ([3]; MIPE library, sheet S2E) was 469.864. It also gave an NIH3T3_AUC (NIH-3T3 cells; [20]) of 475.685, an NIH3T3_AUC (NIH-3T3 cells; area under the dose-response curve, NIH3T3 control cells, AUC<450 = reduced viability) of 475.685 and a Control-MCC ([4]; MIPE library, Control AUC minus MCC AUC (therapeutic window), sheet S2E) of 23.8842. The WAGA_AUC (WAGA cells (VP-MCC); [19]) was 402.295, the WAGA_AUC (WAGA cells (VP-MCC); area under the dose-response curve, WAGA cells, AUC<450 = reduced viability) was 402.295 and the “Area under the dose-response curve (AUC) WAGA Replicate 1” value (WAGA cells (VP-MCC); follow-up screen, WAGA, replicate 1) was 571.8. The “Area under the dose-response curve (AUC) WAGA Replicate 2” value (WAGA cells (VP-MCC); follow-up screen, WAGA, replicate 2) was 490.2, the “Area under the dose-response curve (AUC) WAGA Replicate 3” value (WAGA cells (VP-MCC); follow-up screen, WAGA, replicate 3) was 485.7 and the MCC_Avg_AUC ([5]; MIPE library, sheet S2E) was 445.98.
O=C1OC(CCN2CCCCC2)OC1(c1ccccc1)c1ccccc1 (stereo not shown) [Pipoxolan hydrochloride] showed a VP-MCC_Avg_AUC ([1]; NPC library) of 421.002, a Control-VP-MCC [1, 6] of 52.3854 and an MKL2_AUC (MKL-2 cells (VP-MCC); [7]) of 392.534. The HEK293T_AUC (HEK293T cells; [8]) was 445.369, the UISO_AUC (UISO cells (VN-MCC); [9]) was 412.652 and the MCC26_AUC (MCC26 cells (VN-MCC); [10]) was 460.749. It also gave an HACAT_AUC (HACAT cells; [11]) of 493.052, a VN-MCC_Avg_AUC ([2]; NPC library) of 450.651 and a Control-VN-MCC [2, 12] of 22.7364. For the same compound, the MKL1_AUC (MKL-1 cells (VP-MCC); [13]) was 437.466, the CRL7250_AUC (CRL-7250 cells; [14]) was 487.056 and the MCC13_AUC (MCC13 cells (VN-MCC); [15]) was 478.552. The Control_Avg_AUC ([3]; NPC library) was 473.388, the NIH3T3_AUC (NIH-3T3 cells; [16]) was 468.074 and the Control-MCC [4, 17] was 37.5609. It also gave a WAGA_AUC (WAGA cells (VP-MCC); [18]) of 433.006 and an MCC_Avg_AUC ([5]; NPC library) of 435.827.
